Measurements reported in patent US7335186B2 (priority 1998, dated 2008).

Conditions: 30 mg per ml solutions

## CN1CC[C@]23c4c5ccc(O)c4O[C@H]2[C@@H](O)C=C[C@H]3[C@H]1C5.O=S(=O)(O)O [Morphine sulphate]
  effectiveness of nasal solution: effective
